Data set [1] concerns human embryonic palatal mesenchymal (HEPM) cells. Description: Intracellular Ca store release in HEPM cells (Fura-2 ratio, PTI cuvette). Type of data set: cell-based. The note with it: for Mobilization of Ca from endoplasmic reticulum (ER) stores: HEPM cells loaded with Fura-2. Here is the method:
(§1) HEPM cells were loaded with 10 μM Fura-2 AM (Invitrogen, Carlsbad, Calif.) for 45 min at 37° C. and allowed to de-esterify for 15 min at 25° C. Cells were then harvested and re-suspended in balanced salt solution (BSS) containing (in mM): 140 NaCl, 2.8 KCl, 2 CaCl2, 2 MgCl2, 10 HEPES, pH 7.2. 2.5×10^6 cells were transferred into the cuvette system of a PTI spectrofluorometer (Photon Technology International, Princeton, N.J.) and the changes in [Ca]i were measured as changes in the ratio of Fura-2 fluorescence at excitation wavelength of 350 nm (F350) and 380 nm (F380), following exposure to various concentrations of thapsigargin, ionomycin or caffeine and ryanodine (C/R). For measurement in 0.5 mM EGTA, cells were centrifuged and re-suspended in BSS without CaCl2, and 0.5 mM EGTA was added immediately before recordings. Measurement of Ca in individual C2C12 myotubes were performed as described before (Shin, D. W. et al. 2003. J. Biol. Chem. 278:3286-3292). All experiments were conducted at 25±2° C.

The test system of a further data set is SOCE in C2C12 myotubes. Kind of data set: SOCE by Mn quenching of Fura-2 in C2C12 myotubes. Type of data set: cell-based, mouse. As to the method:
as §1, with “Measurement of Ca in individual C2C12 myotubes were performed as described before (Shin, D. W. et al. 2003. J. Biol. Chem. 278:3286-3292).” left out
(§2) Manganese (Mn^2+) is known to be able to permeate into cells via store-operated Ca channels (SOCs), but is impervious to surface membrane extrusion processes or SR uptake by Ca pumps. […] Briefly, to measure the Mn^2+ influx rate through the SOC machinery, thapsigargin (TG), or C/R, was applied to cultured cells or C2C12 myotubes to induce SR Ca depletion in 0 mM extracellular CaCa ([CaCa]o), then 0.5 mM Mn^2+ was added to the extracellular solution. The quenching of Fura-2 fluorescence by Mn^2+ was measured at the Ca-independent excitation wavelength of Fura-2 (360 nm). The decay of Fura-2 fluorescence upon Mn^2+ addition was expressed as percent decrease in Fura-2 fluorescence per unit time (the initial fluorescence is set equal to 100%). For all measurements of SOCE by Mn^2+ quenching, the maximally quenched fluorescence signal was established at the end of the experiment by lysing the cells with 1% Triton, and set equal to 0% fluorescence.

A further data set concerns SOCE in HEPM cells. Kind of data set: SOCE by Mn quenching of Fura-2 in HEPM cells. Type of data set: cell-based, human. As to the method:
as §2

A further data set deals with SOCE in NRP-154 cells. The note with it: 10 μM 2-APB, NRP-Con and NRP-Bax cells, TG-depleted. Here is the method: The role of SOCE in Ca signaling in NRP-154 cells was examined. […] Following ER Ca depletion (200 s treatment), 0.5 mM MnCl2 was added into cuvettes containing 1×10^6 NRP-154 cells loaded with Fura-2. The quenching of Fura-2 fluorescence by the entry of Mn^2+ provided a quantitative assay of SOCE. Specifically, the slope of reduction of Fura-2 fluorescence with time reflected the degree of SOCE activation.

A short description of data set [2]: Solubility of recombinant P311 expressed in E. coli. Type of data set: physicochemical. The note with it: E. coli lysate, a portion of the overexpressed protein. As to the method: Using standard recombinant DNA technology, the full-length P311 protein was cloned into a T7-based expression plasmid with a 6× His-tag at either the amino-terminus (pET15b, Novagen) or the carboxy-terminus (pET21b, Novagen) and as a fusion protein with glutathione S-transferase (GST) in plasmid pGEX-2T (Pharmacia). In addition, the untagged P311 was cloned into a T7-based bacterial expression vector pG5 (Alexander, P. et al. 1992. Biochemistry 31:3597-3603). The bacterial host is grown for 12-14 hours at room temperature or for 4 hours at 37° C. after induction with 0.2 mM IPTG. Robust expression for the amino-terminal His6-tagged P311 protein […] was observed; the amino-terminal His6-tagged P311 protein was soluble. The soluble fraction of the His6-tagged P311 protein in the E. coli lysate was purified over a Ni-NTA agarose column. The protein was eluted by 250 mM immidazole and further purified by […] chromatography (Source-15S, Pharmacia) and gel-filtration chromatography (Superdex-200, Pharmacia). The P311 protein was purified to greater than 80% homogeneity as judged on SDS-PAGE. The concentration of P311 was determined by spectroscopic measurement at 280 nm.

The target in a further data set is T1, STIM1 (Homo sapiens, UniProt Q13586).
T1 construct: host or cells: CHO cells (transient transfection)
T1 sequence (Q13586 23-685): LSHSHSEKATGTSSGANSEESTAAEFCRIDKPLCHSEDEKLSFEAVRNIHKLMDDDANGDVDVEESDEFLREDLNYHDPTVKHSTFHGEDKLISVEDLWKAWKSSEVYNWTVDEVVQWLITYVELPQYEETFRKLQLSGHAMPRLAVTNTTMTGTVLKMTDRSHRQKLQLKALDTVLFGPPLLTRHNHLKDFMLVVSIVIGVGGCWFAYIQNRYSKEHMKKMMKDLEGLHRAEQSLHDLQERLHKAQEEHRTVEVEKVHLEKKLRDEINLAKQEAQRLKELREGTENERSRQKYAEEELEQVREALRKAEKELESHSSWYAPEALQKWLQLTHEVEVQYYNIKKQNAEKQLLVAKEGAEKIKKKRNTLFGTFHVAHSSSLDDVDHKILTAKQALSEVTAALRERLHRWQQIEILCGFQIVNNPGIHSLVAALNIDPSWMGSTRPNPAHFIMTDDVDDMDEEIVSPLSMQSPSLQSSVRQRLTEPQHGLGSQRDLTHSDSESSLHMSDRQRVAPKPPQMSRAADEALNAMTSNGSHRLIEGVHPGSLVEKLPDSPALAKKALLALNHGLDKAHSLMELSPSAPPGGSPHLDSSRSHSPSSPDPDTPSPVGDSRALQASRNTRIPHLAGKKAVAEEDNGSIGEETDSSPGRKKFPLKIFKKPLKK
Description: Co-immunoprecipitation of P311 with STIM1 in CHO cell lysates. Type of data set: binding. As to conditions: anti-P311 and anti-STIM1. As to the method: (§3) Next, the interaction of P311 with SOCE molecular machinery was examined experimentally. The interaction of P311 with known components of SOCE, such as STIM1 and Orai1, was studied. A GFP-myc-Orai1 plasmid and the mammalian expression plasmid containing the human STIM1 cDNA (OriGene, Inc.) were used. The plasmids were transfected into CHO cells and 36 hours after transfection, total cell lysates from CHO cells transiently expressing GFP-myc-Orai1 were incubated with either a polyclonal antibody against P311, or an anti-myc monoclonal antibody, with normal rabbit IgG serving as the control. […] Similar results were obtained when co-IP assays were repeated using reversible cross-linker DSP and different detergents in cell lysis buffer, including Triton X-100, NP-40 and CHAPS.

In the next data set the target is T2, Orai1 (Homo sapiens, UniProt Q96D31).
T2 construct: expressed in transfected cells; host or cells: CHO cells (transient transfection, lysate 36 h after transfection)
T2 sequence (Q96D31 whole entry, species assumed): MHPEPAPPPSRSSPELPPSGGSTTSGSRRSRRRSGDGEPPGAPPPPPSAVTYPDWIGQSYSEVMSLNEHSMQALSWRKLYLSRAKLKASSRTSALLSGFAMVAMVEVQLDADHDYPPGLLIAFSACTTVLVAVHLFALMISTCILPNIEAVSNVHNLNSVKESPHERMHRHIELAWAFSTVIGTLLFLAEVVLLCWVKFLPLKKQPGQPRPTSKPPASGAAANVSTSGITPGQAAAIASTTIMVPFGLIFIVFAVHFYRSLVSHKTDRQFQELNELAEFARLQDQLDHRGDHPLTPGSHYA
Kind of data set: Co-immunoprecipitation of P311 with Orai1 in CHO cell lysates. As to conditions: CHO lysates expressing GFP-myc-Orai1; anti-myc and anti-P311. Type of data set: binding. As to the method:
as §3

Turning to `[K+]` [potassium], the “Mobilization of Ca from endoplasmic reticulum (ER) stores” value (“Mobilization of Ca” for short) in data set [1] is listed as “not responsive”.

For the molecule `C1CCc2nnnn2CC1` [PTZ, pentylenetetrazol], the “Effect on SOCE in shRNA-treated myotubes” value in the data set with SOCE in C2C12 myotubes (C2C12 myotubes transfected with shRNA against P311) is reported as “absent”. In addition, the “SR Ca filling status” value in the data set with SOCE in C2C12 myotubes (C2C12 myotubes treated with PTZ) was “without affecting the SR Ca filling status”. Further, in the data set on SOCE in C2C12 myotubes (C2C12 myotubes, 20 mM PTZ, no SR Ca depletion), the “Activation of SOCE (Mn entry)” value was “induced the activation of SOCE”.

In the case of `C[C@H](CCC(=O)O)C[C@H](C)C[C@H](C)C(=O)/C=C(\O)[C@H](C)C[C@H](C)C/C=C/[C@@H](C)[C@@H](O)[C@@H](C)[C@@H](O)C[C@@H]1CC[C@@](C)([C@H]2CC[C@@](C)([C@@H](C)O)O2)O1` [ionomycin], the “Mobilization of Ca” value in data set [1] was “reveals a large store of Ca available for release”. The “Activation of SOCE following Ca store depletion” value in the data set with SOCE in HEPM cells is “rapid activation of SOCE”.

As to `NCCOB(c1ccccc1)c1ccccc1` [2-APB, 2-aminoethoxydiphenyl borate], the “Effect on PTZ-triggered Mn quenching of Fura-2 fluorescence” value in the data set on SOCE in C2C12 myotubes (C2C12 myotubes) is “inhibited”. For the same molecule, the “Effect on TG-initiated Mn entry through SOCE” value in the data set with SOCE in C2C12 myotubes (C2C12 myotubes, 2-APB 20 μM) is recorded as “blocked”. The “Effect on SOCE (Mn quenching of Fura-2)” value in the data set with SOCE in NRP-154 cells is “inhibited SOCE”.

On to `Nc1ncnc2c1ncn2[C@@H]1O[C@H](COP(=O)(O)OP(=O)(O)OP(=O)(O)O)[C@@H](O)[C@H]1O` [ATP, adenosine triphosphate], for which the “Ca release on ATP stimulation in LPS-treated cells” value in data set [1] (ATP 1 or 3 mM, LPS-treated HEPM cells) is given as “no effect”. Also, the “Mobilization of Ca” value in data set [1] is reported as “not responsive”.

Turning to `C/C=C(/C)C(=O)O[C@H]1C(C)=C2[C@H]([C@@H]1OC(=O)CCCCCCC)[C@@](C)(OC(C)=O)C[C@H](OC(=O)CCC)[C@@]1(O)[C@H]2OC(=O)[C@@]1(C)O` [thapsigargin], the “Activation of SOCE following Ca store depletion” value in the data set on SOCE in HEPM cells is “rapid activation of SOCE”.

B1: His6-tagged P311: full-length P311 with amino-terminal 6x His-tag expressed in E. coli (protein, UniProt Q16612 1-68, looked up)
chain: MVYYPELFVWVSQEPFPNKDMEGRLPKGRLPVPKEVNRKKNDETNAASLTPLGSSELRSPRISYLHFF
modifications: full-length N-terminal His6 tag
notes: full-length P311 with amino-terminal 6x His-tag expressed in E. coli
Regarding B1, the “Solubility of overexpressed protein” value in data set [2] is on record as “soluble”.

B2: P311: 68 amino acid, 8 kDa cytosolic protein (SEQ ID NO: 1 human, SEQ ID NO: 10 mouse) regulating SOCE (protein)
chain: MVYYPGLLVWVSQEPFLYKEMEGSLTKGRLPVPKEVNRKKLEEARAASMTPPGSHELCFPNISYL
For B2, in the data set with STIM1, the “Co-immunoprecipitation with STIM1” value is “could not immunoprecipitation”. In the data set with Orai1, the “Co-immunoprecipitation with Orai1” value is “physical interaction between P311 and Orai1”.

The record behind these values is patent US8071533B2, “Compositions and methods for modulating store-operated calcium entry” (University of Medicine and Dentistry of New Jersey, priority 2006, dated 2011).
